According to US10597362B2, “3-aminoalkylated indole derivative, method for the preparation thereof, and pharmaceutical composition comprising the same” (Seoul National University Hospital, priority 2016, dated 2020):

What follows are compounds tested on hResistin (assay: Ability to inhibit TNF-α secretion by hResistin (THP-1, ELISA)). Conditions: THP-1 human monocyte cell line; TNF-α secretion by hResistin; concentration 5 uM.
Type: cell-based
Method: Using THP-1 (human monocyte) cell line and ELISA system, the abilities to inhibit TNF-α secretion by hResistin (IC50) were evaluated for the compounds prepared in the above examples. The compounds target hResistin, and the abilities of the compounds to inhibit TNF-α secretion by human recombinant Resistin in human monocyte (THP-1) were evaluated. The abilities to inhibit TNF-α secretion were assessed by ELISA quantifying the amount of antibody with the enzyme as a marker using an antigen-antibody reaction.
Specifically, the cultured cells were spun down at 1,500 rpm for 2 minutes, the supernatant was removed and then the cells were re-suspended in 10 mL of complete RPMI-1640 medium. After counting the number of cells using Luna™ Automated Cell Counter, cells were plated into 96-well assay plates at 50 μL per well. The cells cultured for 24 hours were treated with the test substances in accordance with the concentration for 1 hour, and then the supernatant was collected and subjected to ELISA assay. In the ELISA assay, the absorbance at 450 nm (OD450 nm) was measured using Flexstation 3. The ability of each test substance to inhibit TNF-α secretion (IC50) and its inhibition at a concentration of 5 uM are shown in Table 1 below.

Structure (SMILES) | inhibition at 5 µM [%]
CN1CCN(C(c2ccc(Cl)cc2)c2c(-c3ccccc3)[nH]c3ccccc23)CC1 (stereo not drawn) [Example 2, 3-((4-chlorophenyl)(4-methylpiperazin-1-yl)methyl)-2-phenyl-1H-indole] | 70.3

Same assay, conditions: THP-1 human monocyte cell line; human recombinant Resistin; ELISA OD450 nm; 1 hour treatment

Structure (SMILES) | IC50 [nM]
Fc1ccc(C(c2c(-c3ccccc3)[nH]c3ccccc23)N2CCOCC2)cc1 (stereo not drawn) [Example 9, 4-((4-fluorophenyl)(2-phenyl-1H-indol-3-yl)methyl)morpholine] | 3500
CN1CCN(C(c2ccc(F)cc2)c2c(-c3ccc(Cl)cc3)[nH]c3ccccc23)CC1 (stereo not drawn) [Example 15, 2-(4-chlorophenyl)-3-((4-fluorophenyl)(4-methylpiperazin-1-yl)methyl)-1H-indole] | 1500
CCN1CCN(C(c2ccc(C(F)(F)F)cc2)c2c(-c3ccccc3)[nH]c3ccccc23)CC1 (stereo not drawn) [Example 19, 3-((4-ethylpiperazin-1-yl)(4-(trifluoromethyl)phenyl)methyl)-2-phenyl-1H-indole] | 1700
CCN1CCN(C(c2ccc(F)cc2)c2c(-c3ccccc3)[nH]c3ccccc23)CC1 (stereo not drawn) [Example 18, 3-((4-ethylpiperazin-1-yl)(4-fluorophenyl)methyl)-2-phenyl-1H-indole] | 1700
CN1CCN(C(c2ccc(F)cc2)c2c(-c3ccccc3)[nH]c3ccccc23)CC1 (stereo not drawn) [Example 10, 3-((4-fluorophenyl)(4-methylpiperazin-1-yl)methyl)-2-phenyl-1H-indole] | 1700
CN1CCN(C(c2ccccc2)c2c(-c3ccccc3)[nH]c3ccccc23)CC1 (stereo not drawn) [Example 6, 3-((4-methylpiperazin-1-yl)(phenyl)methyl)-2-phenyl-1H-indole] | 2800
CN1CCN(C(c2cccc(F)c2)c2c(-c3ccc(Cl)cc3)[nH]c3ccccc23)CC1 (stereo not drawn) [Example 14, 2-(4-chlorophenyl)-3-((3-fluorophenyl)(4-methylpiperazin-1-yl)methyl)-1H-indole] | 3200
CN1CCN(C(c2ccc(C(F)(F)F)cc2)c2c(-c3ccccc3)[nH]c3ccccc23)CC1 (stereo not drawn) [Example 8, 3-((4-methylpiperazin-1-yl)(4-(trifluoromethyl)phenyl)methyl)-2-phenyl-1H-indole] | 1000
CN1CCN(C(c2ccc(Cl)cc2)c2c(-c3ccccc3)[nH]c3ccccc23)CC1 (stereo not drawn) [Example 2, 3-((4-chlorophenyl)(4-methylpiperazin-1-yl)methyl)-2-phenyl-1H-indole] | 4400
CN1CCN(C(c2cccc(F)c2)c2c(-c3ccccc3)[nH]c3ccccc23)CC1 (stereo not drawn) [Example 7, 3-((3-fluorophenyl)(4-methylpiperazin-1-yl)methyl)-2-phenyl-1H-indole] | 2000
CN1CCN(C(c2ccc(Cl)cc2)c2c(-c3ccc(Cl)cc3)[nH]c3ccccc23)CC1 (stereo not drawn) [Example 12, 2-(4-chlorophenyl)-3-((4-chlorophenyl)(4-methylpiperazin-1-yl)methyl)-1H-indole] | 400
